# In patent publication US8765779B2, “Tricyclic derivatives and their pharmaceutical use and compositions” (Cephalon, Inc., priority 2009, dated 2014):
# Target: T1, human 5-HT6 receptor (Homo sapiens, UniProt P50406)
# T1 construct: host or cells: CHO-K1 cells, stably transfected; membranes prepared in house
# Assay: Human 5-HT6 Receptor Binding Assay ([3H]LSD displacement, scintillation beads)
# Settings: membranes of CHO-K1 cells with recombinant human 5-HT6, 4 nM [3H]LSD; Table 1, class symbols; read-out: h5-HT6 (Ki)
# T1 sequence (P50406 whole entry): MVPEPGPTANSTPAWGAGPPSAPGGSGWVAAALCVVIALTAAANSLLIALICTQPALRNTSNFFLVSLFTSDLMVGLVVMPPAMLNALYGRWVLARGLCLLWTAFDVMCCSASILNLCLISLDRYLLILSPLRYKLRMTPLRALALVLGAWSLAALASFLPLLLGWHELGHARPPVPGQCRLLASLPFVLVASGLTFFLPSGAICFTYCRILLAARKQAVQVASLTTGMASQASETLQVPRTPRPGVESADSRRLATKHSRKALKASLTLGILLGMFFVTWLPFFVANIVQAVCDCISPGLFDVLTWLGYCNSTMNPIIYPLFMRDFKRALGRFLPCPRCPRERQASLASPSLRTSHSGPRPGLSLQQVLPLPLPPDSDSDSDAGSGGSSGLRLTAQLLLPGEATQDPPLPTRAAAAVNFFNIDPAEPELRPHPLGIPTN
row,SMILES,Ki [nM]
1,O=S(=O)(c1ccc2c(c1)OC1CNCCC21)c1cccc(F)c1F (centres unmarked) [Example 388],< 500
2,CC1NCCc2c1oc1cc(S(=O)(=O)c3ccc(F)c(F)c3)ccc21 (centres unmarked) [Example 238],< 500
3,O=S(=O)(c1cncc(C(F)(F)F)c1)c1ccc2c(c1)OC1CNCCC21 (centres unmarked) [Example 464],< 500
4,O=S(=O)(c1ccc2oc3c(c2c1)CCNC3)c1cccnc1OCC(F)(F)F [Example 448],< 500
5,[O-][S+](c1ccc2c(c1)OC1CNCCC21)c1cc(F)cc(F)c1F (centres unmarked) [Example 385],> 1000
6,O=S(=O)(Oc1ccc2c(c1)C1CCNCC1O2)c1ccc(Cl)c(Cl)c1 (centres unmarked) [Example 738],< 500
7,O=S(=O)(Cc1ccc(F)cc1F)Oc1ccc2c(c1)C1CCNCC1O2 (centres unmarked) [Example 756],> 1000
8,Cc1cc(C)cc(S(=O)(=O)Oc2ccc3c(c2)OC2CNCCC32)c1 (centres unmarked) [Example 648],< 500
9,CC12CCNCC1Oc1ccc(OS(=O)(=O)c3cccc(Cl)c3)cc12 (centres unmarked) [Example 762],> 1000
10,O=S(=O)(c1cccc(Cl)c1)c1ccc2c3c(oc2c1)C(C1CCOCC1)NCC3 (centres unmarked) [Example 500],< 500
11,CC1(C)NCCc2c1oc1cc(S(=O)(=O)c3cc(Cl)c[n+]([O-])c3N)ccc21 [Example 371],< 500
12,O=S(=O)(c1ccc2c(c1)OCCO2)c1ccc2oc3c(c2c1)CCNC3 [Example 247],< 500
13,O=S(=O)(c1cccc(OCc2ccncc2)c1)c1ccc2c(c1)OC1CNCCC21 (centres unmarked) [Example 561],< 500
14,O=S(=O)(Nc1ccc(Cl)c(Cl)c1)c1ccc2c(c1)C1CCNCC1O2 (centres unmarked) [Example 852],> 1000
15,"CC(C)CC1(C)NCCc2c1oc1cc(S(=O)(=O)c3cccc(F)c3)ccc21 (racemic) [Example 36, 7-[(3-fluorophenyl)sulfonyl]-1-methyl-1-(2-methylpropyl)-1,2,3,4-tetrahydro[1]benzofuro[2,3-c]pyridine]",< 500
16,O=S(=O)(c1ccc2oc3c(c2c1)CCNC3)c1c(F)c(F)cc(F)c1F [Example 274],< 500
17,"CC12CCNCC1Oc1ccc(OS(=O)(=O)Cc3ccccc3)cc12 (centres unmarked) [Example 758, 4a-methyl-1,2,3,4,4a,9a-hexahydro[1]benzofuro[2,3-c]pyridin-6-yl phenylmethanesulfonate]",< 500
18,O=S(=O)(c1ccc2c(c1)OC1CNCCC21)c1cccc2c1OC(F)(F)O2 (centres unmarked) [Example 461],< 500
19,O=S(=O)(c1ccc(Cl)cc1)c1ccc2oc3c(c2c1)CCNC3 [Example 250],< 500
20,Cc1c(S(=O)(=O)Nc2ccc3c(c2)C2CCNCC2O3)sc2ccc(Cl)cc12 (centres unmarked) [Example 830],< 500
21,O=S(=O)(Oc1ccc2c(c1)C1CCNCC1O2)c1cccc2cccnc12 (centres unmarked) [Example 722],500 to 1000
22,O=S(=O)(c1ccc(Cl)cc1)c1ccc2c(c1)OC1CNCCC21 (centres unmarked) [Example 322],< 500
23,O=S(=O)(c1cccc(F)c1)c1ccc2c3c(oc2c1)C(C(F)F)NCC3 (centres unmarked) [Example 509],< 500
24,O=S(=O)(c1ccc2c(c1)C1CCNCC1O2)N1CCc2ccccc2C1 (centres unmarked) [Example 856],< 500
25,O=S(=O)(c1ccc2c(c1)OC1CNCCC21)c1cccc2cccnc12 (centres unmarked) [Example 332],< 500
26,COc1ccc(S(=O)(=O)c2ccc3c4c(oc3c2)C(C)NCC4)cc1F (centres unmarked) [Example 236],< 500

row,SMILES,Ki [nM]
1,O=S(=O)(c1ccc(Cl)cc1)c1cccc2c1OC1CNCCC21 (centres unmarked) [Example 188],< 500
2,Cc1ccc(C)c(S(=O)(=O)Oc2ccc3c(c2)OC2CNCCC32)c1 (centres unmarked) [Example 647],< 500
3,O=S(=O)(Oc1ccc2c(c1)C1CCNCC1O2)c1ccc(C(F)(F)F)cc1 (centres unmarked) [Example 735],> 1000
4,O=S(=O)(Oc1ccc2c(c1)OC1CNCCC21)c1cccc2cccnc12 (centres unmarked) [Example 662],< 500
5,[O-][S+](c1ccc2c3c(oc2c1)CNCC3)c1cccnc1Cl (centres unmarked) [Example 435],> 1000
6,CC12CCNCC1Oc1ccc(OS(=O)(=O)c3ccc(Oc4ccccc4)nc3)cc12 (centres unmarked) [Example 782],> 1000
7,COc1ccc(S(=O)(=O)c2ccc3c4c(oc3c2)CNCC4)cc1F [Example 194],< 500
8,CC12CCNCC1Oc1cc(S(=O)(=O)c3cccc4c3OCCO4)ccc12 (centres unmarked) [Example 468],< 500
9,CC12CCNCC1Oc1ccc(OS(=O)(=O)c3cccc(C(F)(F)F)c3)cc12 (centres unmarked) [Example 780],> 1000
10,COc1cc(OC)cc(S(=O)(=O)c2ccc3c(c2)OC2CNCCC32C)c1 (centres unmarked) [Example 489],< 500
11,COc1ccc(S(=O)(=O)c2ccc3oc4c(c3c2)CCNC4)cc1OC [Example 242],> 1000
12,O=S(=O)(c1ccc2c3c(oc2c1)CNCC3)c1cccc2ccccc12 [Example 202],< 500
13,CC(C)Oc1cccc(S(=O)(=O)c2ccc3c(c2)OC2CNCCC32)c1F (centres unmarked) [Example 481],< 500
14,Cn1cnc(S(=O)(=O)Oc2ccc3c(c2)OC2CNCCC32)c1 (centres unmarked) [Example 639],> 1000
15,O=S(=O)(Nc1ccc2c(c1)C1CCNCC1O2)c1ccc2ccccc2c1 (centres unmarked) [Example 819],< 500
16,"Cc1cccc(S(=O)(=O)c2ccc3c4c(oc3c2)CNCC4)n1 [Example 343, 7-[(6-methylpyridin-2-yl)sulfonyl]-1,2,3,4-tetrahydro[1]benzofuro[2,3-c]pyridine]",< 500
17,Cc1ccc(S(=O)(=O)c2ccc3c4c(oc3c2)CNCC4)cc1 [Example 204],< 500
18,O=S(=O)(Oc1ccc2c(c1)C1CCNCC1O2)c1c(Cl)nc2sccn12 (centres unmarked) [Example 698],< 500
19,CC12CCNCC1Oc1ccc(OS(=O)(=O)c3csc4ccccc34)cc12 (centres unmarked) [Example 772],< 500
20,O=S(=O)(c1cccc(Oc2ccccn2)c1)c1ccc2c(c1)OC1CNCCC21 (centres unmarked) [Example 579],< 500
21,CC(C)COc1cc(F)cc(S(=O)(=O)c2ccc3c(c2)OC2CNCCC32)c1 (centres unmarked) [Example 402],< 500
22,O=S(=O)(Oc1ccc2c(c1)C1CCNCC1O2)c1ccc2ccccc2c1 (centres unmarked) [Example 721],< 500
23,CC(C)CN1CCc2c(oc3cc(S(=O)(=O)c4ccccc4)ccc23)C1 [Example 593],< 500
24,COc1ccc(S(=O)(=O)c2ccc3c(c2)C2CCNCC2O3)cc1OC (centres unmarked) [Example 171],> 1000
25,[O-][S+](c1ccc2c(c1)OC1CNCCC21)c1cc(F)ccc1F (centres unmarked) [Example 142],> 1000
26,COc1cncc(S(=O)(=O)c2ccc3c4c(oc3c2)C(C)(C)NCC4)c1 [Example 370],< 500

row,SMILES,Ki [nM]
1,O=S(=O)(c1ccc2c3c(oc2c1)CNCC3)C1CCCCC1 [Example 233],> 1000
2,O=S(=O)(Oc1ccc2c(c1)C1CCNCC1O2)c1cc(Cl)cc(Cl)c1 (centres unmarked) [Example 739],< 500
3,"CC1(C)NCCc2c1oc1cc(S(=O)(=O)c3cccc(F)c3)ccc21 [Example 1, 7-[(3-Fluorophenyl)sulfonyl]-1,1-dimethyl-1,2,3,4-tetrahydro[1]benzofuro[2,3-c]pyridine]",< 500
4,O=S(=O)(CC1CCCCC1)Oc1ccc2c(c1)OC1CNCCC21 (centres unmarked) [Example 690],> 1000
5,O=S(=O)(c1cccc2c1OC1CNCCC21)c1cccc2ccccc12 (centres unmarked) [Example 184],< 500
6,O=S(=O)(c1ccc2c(c1)OC1CNCCC21)c1cc(F)cc(F)c1F (centres unmarked) [Example 400],< 500
7,O=S(=O)(Nc1ccc2c(c1)C1CCNCC1O2)c1cccc2ccccc12 (centres unmarked) [Example 825],< 500
8,"O=S(=O)(c1ccccc1)c1ccc2c3c(oc2c1)CN(CCO)CC3 [Example 592, 2-[7-(Phenylsulfonyl)-3,4-dihydro[1]benzofuro[2,3-c]pyridin-2(1H)-yl]ethanol]",< 500
9,O=S(=O)(c1cc(F)cc(OCC2CCOCC2)c1)c1ccc2c(c1)OC1CNCCC21 (centres unmarked) [Example 591],< 500
10,O=S(=O)(Oc1ccc2c(c1)OC1CNCCC21)c1cc2ccccc2s1 (centres unmarked) [Example 664],< 500
11,O=S(=O)(Oc1ccc2c(c1)OC1CNCCC21)c1cccc(Cl)c1Cl (centres unmarked) [Example 678],< 500
12,O=S(=O)(Oc1ccc2c(c1)OC1CNCCC21)c1cc(Cl)cc(Cl)c1 (centres unmarked) [Example 677],< 500
13,O=S(=O)(c1cc(F)cc(OCc2ccccc2)c1)c1ccc2c(c1)OC1CNCCC21 (centres unmarked) [Example 484],< 500
14,O=S(=O)(c1ccc2c(c1)OC1CNCCC21)c1cccc2ccccc12 (centres unmarked) [Example 114],< 500
15,O=S(=O)(c1ccc2c(c1)OC1CNCCC21)c1cccnc1F (centres unmarked) [Example 398],< 500
16,"O=S(=O)(c1ccccc1)c1ccc2c3c([nH]c2c1)C1(CCOCC1)NCC3 [Example 545, 7-(Phenylsulfonyl)-2,2′,3,3′,4,5′,6′,9-octahydrospiro[beta-carboline-1,4′-pyran]trifluoroacetate]",< 500
17,CC12CCNCC1Oc1ccc(OS(=O)(=O)c3cc4ccccc4o3)cc12 (centres unmarked) [Example 764],500 to 1000
18,CC1(C)NCCc2c1oc1cc(S(=O)(=O)c3cncc(F)c3)ccc21 [Example 381],< 500
19,Cc1cc(C)c(S(=O)(=O)Oc2ccc3c(c2)OC2CNCCC32)c(C)c1 (centres unmarked) [Example 656],< 500
20,CN1CCC2c3ccc(S(=O)(=O)c4ccccc4)cc3OC2C1 (centres unmarked) [Example 607],< 500
21,COc1ccc(S(=O)(=O)c2ccc3c(c2)C2CCNCC2O3)cc1 (centres unmarked) [Example 336],> 1000
22,CCN1CCC2c3ccc(OS(=O)(=O)c4ccc(Cl)cc4)cc3OC2C1 (centres unmarked) [Example 812],> 1000
23,CC(C)Oc1ncccc1S(=O)(=O)c1ccc2c3c(oc2c1)CNCC3 [Example 439],< 500
24,CC12CCNCC1Oc1ccc(OS(=O)(=O)c3ccccc3Cl)cc12 (centres unmarked) [Example 763],> 1000
25,"CC1(C)CNC2(CCOCC2)c2oc3cc(S(=O)(=O)c4cccc(F)c4)ccc3c21 [Example 2, 7-[(3-fluorophenyl)sulfonyl]-4,4-dimethyl-2′,3,3′,4,5′,6′-hexahydro-2H-spiro[1-benzofuro[2,3-c]pyridine-1,4′-pyran]]",< 500
26,O=S(=O)(Nc1ccc2c(c1)C1CCNCC1O2)c1cc(Cl)cc(Cl)c1 (centres unmarked) [Example 828],< 500

# Same assay, conditions: membranes of CHO-K1 cells with recombinant human 5-HT6, 4 nM [3H]LSD; specific data; read-out: h5-HT6 (Ki)
row,SMILES,Ki [nM]
1,"Cc1cccc(S(=O)(=O)c2ccc3c4c(oc3c2)CNCC4)n1 [Example 343, 7-[(6-methylpyridin-2-yl)sulfonyl]-1,2,3,4-tetrahydro[1]benzofuro[2,3-c]pyridine]",6.6
2,"CC1(C)NCCc2c1oc1cc(S(=O)(=O)c3cccc(F)c3)ccc21 [Example 1, 7-[(3-Fluorophenyl)sulfonyl]-1,1-dimethyl-1,2,3,4-tetrahydro[1]benzofuro[2,3-c]pyridine]",1.5
